From patent US9435809B2, “Method of treating and reducing the risk of acute myelogenous leukemia” (Memorial Sloan-Kettering Cancer Center, priority 2011, dated 2016)
“Also recorded” adds a separate entry of the source.

Experiments:
[1] = tested on: AE9a expressing mouse leukemia cells; assay: AE9a mouse AML model, leukemia cells treated ex vivo and injected; type: in vivo
Experimental: (§1) Leukemia cells were obtained from two AML patients with t(8;21) by Ficoll-hypaque separation. Informed consent was obtained from the patients, according to institutional (IRB) guidelines. The cell viabilities of the primary leukemia cells, Kasumi-1 cells, HL60 cells and human CD34^+ cells were assessed by triplicate counting of trypan blue dye-excluding cells under light microscopy. The cell morphology was evaluated by Wright's staining of cells prepared by cytospin centrifugation. Blast cells were isolated from the bone marrow and spleen of the mice with AE9a or MLL-AF9 driven leukemia, and treated for 12 hours with Lys-CoA-Tat or DDDD-Tat (at 50 μM), or C646 vs. C37 (at 20 μM). Female C57Bl/6 mice were sublethally irradiated with 475 cGy, and then injected with 3×10^6 treated blast cells via tail vein.
(§2) Assays were set up in triplicates and the results expressed as the mean±SD. Statistical analyses were performed using Student's t-test. Survival functions were estimated using the Kaplan-Meier method and compared by the log-rank test.

HL60 cells = assay: MTT growth assay of AML cell lines: HL60; type: cell-based; conditions: at 5 μM; MTT assay after 72 hours
Experimental: (§3) Cells were treated with p300 inhibitors at different concentrations in a 96-well plate. After 72 hours, 0.1 mg MTT was added to each well. The samples were incubated at 37° C. for 4 hours and the absorbance was measured at 570 nm by spectrophotometry.

[2] = tested on: acetylated A-EK43 (AML1-ETO); assay: A-EK43 acetylation in Kasumi-1 cells (IP / Western blot); type: cell-based, human; conditions: Lys-CoA-Tat 50 μM, C646 10 or 20 μM for 24 hours
Source text: (§4) Anti-p300 (Millipore or Santa Cruz), anti-Flag (Sigma), anti-HA (Santa Cruz), anti-ETO (generated in the Roeder lab or Santa Cruz), anti-AML1 (Zhao, X. et al, Genes Dev 22, 640, 2008), anti-acetylated lysine (Stressgen), anti-acetylated Histone H3 (Millipore), anti-Tubulin (Sigma), anti-TAFII250 (generated in the Roeder lab) and anti-TAF7 (generated in the Roeder lab) antibodies were used. Two anti-acetylated AML1-ETO polyclonal antibodies were generated by immunizing rabbits with the synthetic peptides (TALSPGK [acetylated] MSEA SEQ ID NO: 10 or LAGK [acetylated] LRSGDRS SEQ ID NO: 11) conjugated to KLH. The polyclonal antiserum was collected and purified using a peptide affinity column. The affinity of the antibodies against acetyl-lysine AML1-ETO was measured by dot blot assays. For the dot blot assays, 5 pmol of peptide (measured by Ellman's reagent) was spotted onto a nitrocellulose membrane. The control peptides were as follows: AML1-ETOK24 peptide (TALSPGKMSEA) (SEQ ID NO: 10) and AML1-ETOK43 peptide (LAGK LRSGDRS) (SEQ ID NO: 11).
(§5) The Flag-AE, Flag-AE-ΔNHR1 (aa245-436), Flag-AE-ΔNHR2, Flag-ETO, Flag-ETO-ΔNHR1 and Flag-ETO-ΔNHR2 cDNAs were cotransfected into 80% confluent 293T cells using the FuGene 6 reagent. After 36 hours the cells were lysed in RIPA buffer with 1 mM DTT and DNAse I 1 μg/mL and a proteinase inhibitor cocktail (Roche), and incubated on ice for 30 minutes. […]

[3] = tested on: MLL-AF9 expressing mouse leukemia cells; assay: MLL-AF9 mouse leukemia model, leukemia cells treated ex vivo and injected; type: in vivo; conditions: cells treated ex vivo 12 hours with 50 μM Lys-CoA-Tat/DDDD-Tat or 20 μM C646/C37; sublethally irradiated recipients
Experimental: as §1, §2

HEL cells = assay: MTT growth assay of AML cell lines: HEL; type: cell-based; conditions: at 5 μM; MTT assay after 72 hours
Experimental: as §3

THP-1 cells = assay: MTT growth assay of AML cell lines: THP-1; type: cell-based; conditions: at 5 μM; MTT assay after 72 hours
Experimental: as §3

Kasumi-1 cells = assay: Growth of Kasumi-1 cells; type: cell-based, human; conditions: Lys-CoA-Tat and DDDD-Tat 50 μM; C646 concentration not stated
Experimental: as §1, §3

U937 cells = assay: MTT growth assay of AML cell lines: U937; type: cell-based; conditions: at 5 μM; MTT assay after 72 hours
Experimental: as §3

NB4 cells = assay: MTT growth assay of AML cell lines: NB4; type: cell-based; conditions: at 5 μM; MTT assay after 72 hours
Experimental: as §3

Id1, p21 and Egr1 mRNA = assay: qPCR of AML1-ETO activated target genes in Kasumi-1 cells; type: cell-based, human; conditions: 24 hours, Lys-CoA-Tat 50 μM, C646 20 μM
Experimental: The RNA extraction and cDNA generation procedures were described above. The reverse transcription reaction was performed for 10 min at 25° C., 50 min at 50° C., 5 min at 85° C. and 20 min at 37° C. Real-time quantitative PCR was performed using a TaqMan 7500 sequence detector system (Applied Biosystems). The thermal cycle conditions were:
50° C. for 2 min, 95° C. for 10 min to activate Amplitaq Gold DNA polymerase, denaturation at 95° C. for 15 seconds and anneal/extension at 60° C. for 1 min (45 cycles). Quantitative PCR for HPRT was performed to normalize for cDNA loading. The relative quantification of gene expression was calculated using the method […], as described by the manufacturer.

Mono-Mac-1 cells = assay: MTT growth assay of AML cell lines: Mono-Mac-1; type: cell-based; conditions: at 5 μM; MTT assay after 72 hours
Experimental: as §3

histone H3 = assay: Histone H3 acetylation in Kasumi-1 cells (Western blot); type: cell-based, human; conditions: Lys-CoA-Tat 50 μM, C646 10 or 20 μM for 24 hours
Source text: as §4, §5

MO-91 cells = assay: MTT growth assay of AML cell lines: MO-91; type: cell-based; conditions: at 5 μM; MTT assay after 72 hours
Experimental: as §3

[4] = AE9a cells treated ex vivo 12 hours, 50 μM Lys-CoA-Tat vs DDDD-Tat or 20 μM C646 vs C37

With `CC1=NN(c2ccc(C(=O)O)cc2)C(=O)/C1=C\c1ccc(-c2cc(C)c(C)cc2[N+](=O)[O-])o1` [C646] the “Percent of GFP+ C-Kit+ cells in peripheral blood” value [1, 4] was “reduced the number; also recorded: significantly less”, the WBC counts [1, 4] was “lower white blood counts; also recorded: significantly lower” and the “platelet count (PLT)” value [1, 4] was “less thrombocytopenia; also recorded: higher”. The “red blood cell count (RBC)” value [1, 4] was “less anemia; also recorded: higher”, the “Median survival of AE9a mice” value ([1]; cells treated ex vivo 12 hours with 50 μM Lys-CoA-Tat/DDDD-Tat or 20 μM C646/C37, sublethally irradiated recipients) was 43 days and the “growth of HL60 cells” value (HL60 cells) was “minimal effect”. For the same compound, the “level of acetylated A-EK43” value [2] was “decreased the level; also recorded: decreased acetylation”, the “Median survival of MLL-AF9 mice” value [3] was 28 days and the “growth of HEL cells” value (HEL cells) was “inhibited the growth”. For the same compound, the “growth of THP-1 cells” value (THP-1 cells) was “minimal effect”, the “growth of Kasumi-1 cells” value (Kasumi-1 cells) was “as did C646” and the “growth of U937 cells” value (U937 cells) was “inhibited the growth”. For the same compound, the “growth of NB4 cells” value (NB4 cells) was “inhibited the growth”, the “expression of AML1-ETO activated target genes (Id1, p21 and Egr1 mRNA)” value (Id1, p21 and Egr1 mRNA) was “decreased the level; also recorded: downregulated expression” and the “growth of Mono-Mac-1 cells” value (Mono-Mac-1 cells) was “minimal effect”. For the same compound, the “level of acetylated histone H3” value (histone H3) was “decreased the level” and the “growth of MO-91 cells” value (MO-91 cells) was “inhibited the growth”.
